Assay results reported in US6590140B1, “Metal-regulated transporters and uses therefor” (Trustees of Dartmouth College, priority 1996, dated 2003).
Where “and” joins values, the source holds several entries; their conditions need not be identical. Equal entries are not always repeated.

Legend:
zrt1 mutant (ZHY1) cells = assay type: cell-based, Saccharomyces cerevisiae; conditions: for effect on zrt1 growth in LIM: 500 μM metal added to iron-limiting medium LIM (1 mM EDTA)
Protocol: (§1) Strains used were DY1457 (MATα ade6 can1 his3 leu2 trp1 ura3) and ZHY1 (MaTα ade6 can1 his3 leu2 trp1 ura3 zrt1:: LEU2). Yeast were grown in standard culture media (SD, YPD) (Eide, D., Davis-Kaplan S., Jordan, I., Sipe, D., and Kaplan, J. (199: 2) J. Biol. Chem. 267, 20774-20781) supplemented with necessary auxotrophic requirements and either 2% glucose or 2% galactose. A zinc-limiting medium (LZM) was prepared in the same manner as LIM (Eide and Guarenete (1992) J. Gen. Microbiol. 138:347-354) except that […]. Cell number in liquid cultures was determined by measuring the optical density of cell suspensions at 600 nm (A600) and converting to cell number with a standard curve.
(§2) Strains used were DY1457 (MATα ade6 can1 his3 leu2 trp1 ura3), ZHY1 (AMTα ade6 can1 his3 leu2 trp1 ura3 zrt1::LEU2), ZHY2 (MATα ade6 can1 his3 leu2 trp1 ura3 zrt2::HIS3), and ZHY3 (MATα ade6 can1 his3 leu2 trp1 ura3 zrt1::LEU2 zrt2::HIS3). Yeast were grown in YP or SD media (Sherman et al. (1986) Methods in Yeast Genetics, Cold Spring Harbor Laboratory, Cold Spring Harbor, N.Y.) supplemented with necessary auxotrophic requirements and either 2% glucose or 2% galactose. Zinc-limiting YP and SD agar plates contained either bathophenanthroline disulfonate (BPS, 200 μM) or EDTA (1 mM), respectively. A liquid zinc-limiting medium (low zinc medium, LZM) was prepared in the same manner as low iron medium (LIM) (Eide and Guarente (1992) J. Gen. Microbiol. 138:347-354) except that the […]. LZM is similar in composition to SD medium with two modifications essential to controlling zinc availability. First, 1 mM EDTA is added to provide buffering for the concentration of free metal ions. Second, the medium is pH-buffered at 4.2 with 20 mM citrate to prevent pH changes that could alter the metal binding ability of EDTA. LZM was also prepared without EDTA ([…]) which is less zinc-limiting because the predominant chelator in this medium, citrate, binds zinc with less affinity than does EDTA. The concentrations of free (i.e. unchelated) zinc were calculated using MAXCHELATOR software (Chris Patton, Stanford University). Cell number in liquid cultures was determined by measuring the absorbance of cell suspensions at 600 nm (OD600) and converting to cell number with a standard curve.
To examine the function of ZRT1, a disruption mutation, zrt1::LEU2, was constructed by inserting the LEU2 gene into the center of ZRT1 (FIG. 6). This zrt1 disruption allele was then introduced into a haploid yeast strain. […] Because of the high EDTA concentration in LIM (1 mM), this medium is expected to have low available levels of other metals that are bound tightly by this chelator. Supplements of other metals were tested for improved growth of the zrt1 mutant in LIM. […] To study this effect further, a low zinc medium, LZM, was developed in which cell growth could be limited by zinc deficiency and the growth response of the wild type and zrt1 mutant strains to increasing levels of supplemented zinc was examined. Wild type (DY1457, squares) and zrt1 mutant (ZHY1, circles) cells were inoculated into LZM supplemented with the indicated amount of ZnSO4 and grown for 16 hours prior to cell number determination. […] Mutant zrt1 cells attained this same maximum number of cell divisions only with zinc supplements of 750 μM or more, i.e. a 75-fold increase in the zinc requirement of the zrt1 mutant compared to the wild type.
To further assess the role of the low affinity system as a source of zinc, growth of wild type and zrt2 cells in a zinc-limiting medium, LZM, supplemented with increasing amounts of zinc was examined. The same strains as in FIG. 15 were grown for six hours in SD glucose medium, harvested, washed in LZM, and reinoculated into either LZM (FIG. 15A) or LZM-EDTA (FIG. 15B) supplemented with the indicated concentrations of ZnCl2 ([Zn]T). […]

wild type (DY1457) cells = assay: Zinc-limited growth, wild type yeast; assay type: cell-based, Saccharomyces cerevisiae; conditions: LZM, 16 hours
Protocol: as §1
Strains used were DY1457 (MATα ade6 can1 his3 leu2 trp1 ura3), ZHY1 (AMTα ade6 can1 his3 leu2 trp1 ura3 zrt1::LEU2), ZHY2 (MATα ade6 can1 his3 leu2 trp1 ura3 zrt2::HIS3), and ZHY3 (MATα ade6 can1 his3 leu2 trp1 ura3 zrt1::LEU2 zrt2::HIS3). […] The concentrations of free (i.e. unchelated) zinc were calculated using MAXCHELATOR software (Chris Patton, Stanford University). Cell number in liquid cultures was determined by measuring the absorbance of cell suspensions at 600 nm (OD600) and converting to cell number with a standard curve. […]

zrt1zrt2 (ZHY3) cells = assay: Zinc-limited growth, zrt1zrt2 mutant yeast; assay type: cell-based, Saccharomyces cerevisiae
Protocol: as §2
To further assess the role of the low affinity system as a source of zinc, growth of wild type and zrt2 cells in a zinc-limiting medium, LZM, supplemented with increasing amounts of zinc was examined. The same strains as in FIG. 15 were grown for six hours in SD glucose medium, harvested, washed in LZM, and reinoculated into either LZM (FIG. 15A) or LZM-EDTA (FIG. 15B) supplemented with the indicated concentrations of ZnCl2 ([Zn]T). These cultures were then grown for 16 hours at 30° C. prior to cell number determination. Number of cell divisions are plotted against [Zn]T and the calculated free zinc concentration ([Zn]F). The metal ion buffering capacity of EDTA in LZM is exceeded at concentrations above 100 μM total zinc whereas the metal buffering capacity of citrate in LZM-EDTA maintains a linear relationship between [Zn]T and [Zn]F to concentrations greater than 1 mM. It has been shown previously that the zrt1 mutant requires greater than 500 μM total zinc ([Zn]T) in LZM to undergo its maximum number of cell divisions and this value corresponds to a calculated free (i.e. unchelated) zinc concentration ([Zn]F) of approximately 500 μM. […]

[1] = tested on: divalent cation uptake system; conditions: total zinc; earlier studies (Fuhrmann and Rothstein 1968); read-out: apparent Km of zinc uptake by the divalent cation uptake system; cited from earlier work

## [Cl-].[Cl-].[Co+2] [Co]
zrt1 mutant (ZHY1) cells
  effect on zrt1 growth in LIM: no effect

## [Cl][Cu][Cl] [Cu]
zrt1 mutant (ZHY1) cells
  effect on zrt1 growth in LIM: no effect

## [Cl][Mn][Cl] [Mn]
zrt1 mutant (ZHY1) cells
  effect on zrt1 growth in LIM: no effect

## [Zn+2] [zinc]
zrt1 mutant (ZHY1) cells
  effect on zrt1 growth in LIM: greatly enhanced growth
zrt1 mutant (ZHY1) cells; growth in zinc-limiting medium
  increase in zinc requirement of zrt1 mutant compared to wild type: 75 fold and 100 fold
zrt1 mutant (ZHY1) cells; zrt1, LZM
  total zinc required for maximum number of cell divisions: approximately 500 μM
zrt1 mutant (ZHY1) cells; zrt1, LZM-EDTA (LZM without EDTA), 16 hours
  total zinc for maximum number of divisions: 0.5 µM
zrt1 mutant (ZHY1) cells; zrt1, LZM-EDTA, 16 hours
  calculated free zinc [Zn]F for maximum number of divisions: ~6 nM
zrt1 mutant (ZHY1) cells; zrt1 cells, SD glucose supplemented with 2 mM ZnCl2
  growth rate versus untreated culture: No difference in growth rate
Wild type (DY1457) cells
  calculated free zinc [Zn]F sufficient for maximum growth yield: ~6 pM
  total zinc sufficient for maximum number of cell divisions: 10 µM
zrt1zrt2 (ZHY3) cells; zrt1zrt2, LZM-EDTA, 16 hours
  calculated free zinc [Zn]F for maximum number of divisions: ~6 µM
  total zinc for maximum number of divisions: 500 µM
zrt1zrt2 (ZHY3) cells; zrt1zrt2 vs wild type
  zinc required in the medium relative to the wild type strain: greater than 10^5 fold
zrt1zrt2 (ZHY3) cells; zrt1zrt2 vs zrt1
  zinc required for growth relative to the zrt1 strain: at least 1000 fold
[1]
  Km: ~500 µM
